From patent US20210030718A1, “COMBINATIONS FOR TREATING CANCER” (ASTRAZENECA AB, priority 2018, published 2021)
Each block holds one compound with its values, some of them ahead of it.

Tests used:
cleaved caspase-3 = assay: Western blot time course of cleaved caspase-3 in OCILy10 and TMD8; assay type: cell-based; settings: 1 μM AZD5991 for 8 hr, alone or after 24-hour pre-treatment with 100 nM acalabrutinib
Protocol: Two BTK inhibitor-sensitive ABC-DLBCL cell lines (OCILy10 and TMD8) were treated for an 8-hour time course with either 1 μM AZD5991 alone or following a 24-hour pre-treatment with 100 nM acalabrutinib (since exposure for 24 hours was sufficient to induce maximal BH3-only protein levels). Cells were harvested for protein lysates at varying time points (0, 0.5, 1, 2, 4, and 8 hours) post-AZD5991 treatment, normalized for protein concentration using the BCA Protein Assay Kit, and run for western blots according to standard protocols. To ensure expected target engagement of acalabrutinib, the blots were probed for the proximal biomarker for activated BTK (pBTK Y223). To gauge the time to induction of apoptosis, cleaved caspase-3 was also assessed. A loading control (vinculin) was also utilized for normalization.

OCILy10 tumor cells = assay: OCILy10 subcutaneous tumor model, efficacy study; assay type: in vivo, C.B.-17 SCID female mice; settings: OCILy10 s.c. in C.B.-17 SCID mice; acalabrutinib 12.5 mg/kg po bid; AZD5991 IV once weekly
Protocol: 5×10^6 OCILy10 tumor cells were injected subcutaneously in the right flank of C.B.-17 SCID female mice in a volume of 0.1 mL containing 50% matrigel. Tumor volumes (measured by caliper), animal body weight, and tumor condition were recorded twice weekly for the duration of the studies. The tumor volume was calculated using the formula: length (mm)×width (mm)^2×0.52. For efficacy studies, growth inhibition from the start of treatment was assessed by comparison of the differences in tumor volume between control and treated groups. Dosing began when mean tumor size reached approximately 150-180 mm^3. CR=complete response. AZD5991 was formulated in 30% HPBCD (hydroxypropyl beta-cyclodextrin) in water for injection and adjusted to pH 9.0 up to a concentration of 30 mg/mL. AZD5991 was dosed IV once weekly. Acalabrutinib was formulated in 0.5% hydroxypropyl methyl cellulose/0.2% Tween 80, and dosed twice a day (bid) on an 8/16 hr split as an oral (po) administration at a volume of 10 mL/kg at a dose of 12.5 mg/kg.

Karpas422 = assay: CellTiter-Glo viability, 72 hours; assay type: cell-based; settings: Homo sapiens, KARPAS-422, Karpas422, GCB-DLBCL
Protocol: (§1) Two ABC-DLBCL (OCILy10 and TMD8) cell lines and one GCB-DLBCL (Karpas422) cell line were treated with either vehicle (DMSO) or a 10-point, ½ log serially dilution of acalabrutinib for 72 hours with a CellTiter-Glo viability readout.

OCILy10 = assay: CellTiter-Glo viability, 72 hours; assay type: cell-based; settings: Homo sapiens, OCI-Ly10, OCILy10, ABC-DLBCL
Protocol: as §1

TMD8 = assay: CellTiter-Glo viability, 72 hours; assay type: cell-based; settings: Homo sapiens, TMD8, ABC-DLBCL
Protocol: as §1

Bim and Bmf = assay: Western blot of BH3-only protein levels in DLBCL cell lines; assay type: cell-based; settings: 100 nM for 24 hours; OCILy10 and TMD8 relative to the insensitive cell line Karpas422
Protocol: OCILy10, TMD8, and Karpas422 were treated with either vehicle or 100 nM acalabrutinib for 2-72 hours. Protein lysates were harvested at multiple time points in that interval, protein concentration was determined using the BCA Protein Assay Kit, and western blots were performed according to standard protocol to assess the effects on Bcl2 family protein levels. Each sample was normalized to vinculin as a loading control, and then protein levels of acalabrutinib-treated samples were calculated relative to those of vehicle-treated samples.
Each of the three cell lines were then treated with 100 nM acalabrutinib for 24 hours, and BH3-only protein levels were assessed. The levels of pro-apoptotic BH3-only proteins Bim and Bmf were increased in the two acalabrutinib-sensitive DLBCL cell lines relative to the insensitive cell line, priming the cells for apoptosis (FIG. 1). Acalabrutinib increases protein levels of pro-apoptotic proteins, including Bim and Bmf, in BTK inhibitor-sensitive DLBCL cell lines that leads to priming of cells for apoptosis. The results of Example 1 illustrate that diffuse large B-cell […] (DLBCL) cell lines display a differential sensitivity to acalabrutinib.

Structure (SMILES): Cc1c2c(nn1C)CSCc1cc(n(C)n1)CSc1cc(c3ccccc3c1)OCCCc1c(C(=O)O)n(C)c3c-2c(Cl)ccc13 (atropisomer, axis not shown; (Ra)) [AZD5991, (Ra)-17-chloro-5,13,14,22-tetramethyl-28-oxa-2,9-dithia-5,6,12,13,22-pentaazaheptacyclo[27.7.1.1^4,7.0^11,15.0^16,21.0^20,24.0^30,35]octatriaconta-1(37),4(38),6,11,14,16,18,20,23,29,31,33,35-tridecaene-23-carboxylic acid]
induction of cleaved caspase (cleaved caspase-3): no positive caspase activation | tumor growth inhibition (OCILy10 tumor cells): 44%

GI50 (Karpas422): > 31000 nM
Structure (SMILES): CC#CC(=O)N1CCC[C@H]1c1nc(-c2ccc(C(=O)Nc3ccccn3)cc2)c2c(N)nccn12 [acalabrutinib, (S)-4-(8-amino-3-(1-but-2-ynoylpyrrolidin-2-yl)imidazo[1,5-a]pyrazin-1-yl)-N-(pyridin-2-yl)benzamide]
GI50 (OCILy10): 10 nM | GI50 (TMD8): 60 nM | levels of pro-apoptotic BH3-only proteins Bim and Bmf (Bim and Bmf): increased | tumor growth inhibition (OCILy10 tumor cells): 79%
